Measurements: patent US5571822A, “Antitumor compounds” (The University of North Carolina at Chapel Hill, priority 1994, dated 1996)
Read-outs that look alike come from different tables or passages of the source.

Columns and labels:
[1] = tested on: tubulin; experiment: inhibition of radiolabeled colchicine binding to tubulin (ICB); parameters: species or system bovine; conditions: evaluated only when polymerization IC50 ≤ 1.0 μM; inhibitor equimolar with [3H]colchicine, 5-fold molar excess over tubulin
Method: Studies conducted in support of the present invention indicate that one mode of action of the 2-phenyl-4-quinolone compounds, as antitumor agents, is an ability to bind to tubulin and inhibit cell mitosis. […] […].
[…]. […] […].
Electrophoretically homogeneous bovine brain tubulin was purified as described previously (Hamel, et al., 1984). Combretastatin A-4 was a generous gift of Dr. G. R. Pettit, Arizona State University. Dihydrocombretastatin A-4 was prepared as described previously (Getahun et al., 1992). […]

[2] = tested on: tubulin; experiment: inhibition of tubulin polymerization (ITP); assay type: biochemical, bovine
Method: Electrophoretically homogeneous bovine brain tubulin was purified as described previously (Hamel, et al., 1984). […] Dihydrocombretastatin A-4 was prepared as described previously (Getahun et al., 1992).
The tubulin polymerization assay was performed as described previously (Li et al., 1994). In brief, tubulin at 1.2 mg/mL ([…]) was preincubated for 15 min at 26° C. in a 0.24 mL volume in 0.8M monosodium glutamate (pH 6.6 with NaOH in a 2M stock solution) with varying drug concentrations. The drug stock solutions were in dimethyl sulfoxide, and the final solvent concentration was 4% (v/v). […] All concentrations are in terms of the final reaction volume (0.25 mL). The reaction mixtures were chilled on ice, and […] of 10 mM GTP was added to each reaction mixture. Samples were transferred to cuvettes held at 0° C. by an electronic temperature controller in Gilford spectrophotometers. Baselines were established at 350 nm, and polymerization initiated by a temperature jump to 26° C. The jump took about 50 sec to complete. After 20 min, turbidity readings were recorded, and the temperature controller was set to 0° C. When depolymerization was complete, turbidity readings were again recorded. […] IC50 values were obtained graphically from inhibition of polymerization by different drug concentrations. Four spectrophotometers were used for each experimental sequence, with at least two control reactions (no drug) in each set.

[3] = tested on: K-562; experiment: NCI in vitro tumor cell screen, K-562 leukemia; assay type: cell-based; conditions: Homo sapiens, K562
Method: (§1) Selected 2-phenyl-4-quinolones were assayed using an in vitro, disease-oriented antitumor screen run by the National Cancer Institute (NCI) (e.g., Boyd 1989). The screen involved approximately 60 different cell lines and is a useful indicator of in vivo antitumor activity for a broad variety of tumor types (Grever et al., 1992; Monks et al., 1991). The cell lines tested included cells derived from the following solid tumor types: leukemia, non-small cell lung, colon, the central nervous system (CNS), melanoma, ovarian, renal, prostate, and breast cancers.

[4] = tested on: NCI-H226; experiment: NCI in vitro tumor cell screen, NCI-H226 non-small cell lung cancer; assay type: cell-based; conditions: Homo sapiens
Method: as §1

[5] = tested on: HCT116; experiment: NCI in vitro tumor cell screen, HCT116 colon cancer; assay type: cell-based; conditions: Homo sapiens, HCT-116
Method: as §1

[6] = tested on: KM202L; experiment: NCI in vitro tumor cell screen, KM20L2 colon cancer; assay type: cell-based; conditions: Homo sapiens, KM-20L2
Method: as §1

[7] = tested on: SF-268; experiment: NCI in vitro tumor cell screen, SF-268 CNS tumor; assay type: cell-based; conditions: Homo sapiens
Method: as §1
(§2) melonoma; SF268 and SF295, CNS tumor cell lines; DU145, prostate cancer

[8] = tested on: SF-295; experiment: NCI in vitro tumor cell screen, SF-295 CNS tumor; assay type: cell-based
Method: as §1, §2

[9] = tested on: SK-Mel-5; experiment: NCI in vitro tumor cell screen, SK-Mel-5 melanoma; assay type: cell-based; conditions: Homo sapiens
Method: as §1, §2

[10] = tested on: OVCAR-4; experiment: NCI in vitro tumor cell screen, OVCAR-4 ovarian cancer; assay type: cell-based; conditions: Homo sapiens
Method: as §1

[11] = tested on: RXF-393; experiment: NCI in vitro tumor cell screen, RXF-393 renal cancer; assay type: cell-based; conditions: Homo sapiens
Method: as §1

[12] = tested on: approximately 60 different cell lines; experiment: NCI in vitro disease-oriented human tumor cell screen, all cell lines; assay type: cell-based; conditions: Homo sapiens
From the text: The cell lines tested included cells derived from the following solid tumor types: leukemia, non-small cell lung, colon, the central nervous system (CNS), melanoma, ovarian, renal, prostate, and breast cancers.

[13] = tested on: OVCAR-3; experiment: NCI in vitro tumor cell screen, OVCAR-3 ovarian cancer; assay type: cell-based; conditions: Homo sapiens
Method: as §1

[14] = ± SD, tubulin 1.2 mg/mL, 26° C., 20 min, read-out: ITP IC50 (inhibition of tubulin polymerization)
[15] = SF-268, CNS tumor, read-out: logGI50 (converted)
[16] = Homo sapiens, SF-295; read-out: logGI50 (converted)
[17] = calculated from all cell lines tested (Table II), read-out: average logGI50 (converted)
[18] = average over cell lines, read-out: average log GI50 (converted)

COc1ccc(/C=C\c2cc(OC)c(OC)c(OC)c2)cc1O [combretastatin A-4, reference compound]
ICB (% inhibition of colchicine binding) [1]: 94 ± 2%

Nc1cccc(-c2cc(=O)c3cc4c(cc3[nH]2)OCO4)c1 [compound 10, 3'-Amino-6,7-methylenedioxy-2-phenyl-4-quinolone]
IC50 [2, 14]: 0.00073 ± 0.0002 mM
ICB (% inhibition of colchicine binding) [1]: 16 ± 7%
GI50 [3]: 891 nM
GI50 [4]: 2190 nM
GI50 [5]: 479 nM
GI50 [6]: 708 nM
GI50 [7, 15]: 759 nM
GI50 [8, 16]: 2400 nM
GI50 [9]: 933 nM
GI50 [10]: 38900 nM
GI50 [11]: 603 nM
GI50 [12, 17]: 1620 nM

CNc1cccc(-c2cc(=O)c3cc4c(cc3[nH]2)OCO4)c1 [compound 11, 3'-N-Methylamino-6,7-methylenedioxy-2-phenyl-4-quinolone]
IC50 [2, 14]: 0.00065 ± 0.0001 mM
ICB (% inhibition of colchicine binding) [1]: 17 ± 11%
GI50 [3]: 398 nM
GI50 [4]: 537 nM
GI50 [5]: 245 nM
GI50 [6]: 331 nM
GI50 [7, 15]: 5500 nM
GI50 [8, 16]: 324 nM
GI50 [9]: 447 nM
GI50 [13]: 339 nM
GI50 [11]: 363 nM
GI50 [12, 17]: 513 nM

O=c1cc(-c2cccc(O)c2)[nH]c2cc3c(cc12)OCO3 [compound 12, 3'-Hydroxy-6,7-methylenedioxy-2-phenyl-4-quinolone]
IC50 [2, 14]: 0.00047 ± 0.0001 mM
ICB (% inhibition of colchicine binding) [1]: 26 ± 3%
GI50 [3]: 724 nM
GI50 [5]: 1820 nM
GI50 [6]: 3310 nM
GI50 [7, 15]: 2290 nM
GI50 [8, 16]: 5500 nM
GI50 [9]: 1480 nM
GI50 [12, 18]: 3160 nM
GI50 [12, 17]: 3090 nM

O=c1cc(-c2cccc(F)c2)[nH]c2cc3c(cc12)OCO3 [compound 13, 3'-Fluoro-6,7-methylenedioxy-2-phenyl-4-quinolone]
IC50 [2, 14]: 0.00053 ± 0.0001 mM
ICB (% inhibition of colchicine binding) [1]: 51 ± 3%
GI50 [3]: 339 nM
GI50 [4]: 955 nM
GI50 [5]: 219 nM
GI50 [7, 15]: 661 nM
GI50 [8, 16]: 141 nM
GI50 [9]: 269 nM
GI50 [13]: 288 nM
GI50 [12, 17]: 339 nM

O=c1cc(-c2cccc(Cl)c2)[nH]c2cc3c(cc12)OCO3 [compound 14, 3'-Chloro-6,7-methylenedioxy-2-phenyl-4-quinolone]
IC50 [2, 14]: 0.00037 ± 3e-05 mM
ICB (% inhibition of colchicine binding) [1]: 45 ± 7%
GI50 [6]: 269 nM
GI50 [9]: 209 nM
GI50 [10]: > 75900 nM
GI50 [12, 17]: 501 nM

O=c1cc(-c2cccc(Br)c2)[nH]c2cc3c(cc12)OCO3 [compound 15, 3'-Bromo-6,7-methylenedioxy-2-phenyl-4-quinolone]
IC50 [2, 14]: 0.00053 ± 0.0001 mM
ICB (% inhibition of colchicine binding) [1]: 26 ± 3%
GI50 [3]: 3470 nM
GI50 [4]: 3800 nM
GI50 [5]: 3390 nM
GI50 [6]: 3090 nM
GI50 [7, 15]: 3020 nM
GI50 [8, 16]: 331 nM
GI50 [9]: 4370 nM
GI50 [13]: 4270 nM
GI50 [10]: > 100000 nM
GI50 [11]: 2400 nM
GI50 [12, 18]: 3160 nM
GI50 [12, 17]: 3310 nM

O=c1cc(-c2cccc(C(F)(F)F)c2)[nH]c2cc3c(cc12)OCO3 [compound 16, 3'-Trifluoromethyl-6,7-methylenedioxy-2-phenyl-4-quinolone]
IC50 [2, 14]: 0.00082 ± 0.0002 mM
ICB (% inhibition of colchicine binding) [1]: 5 ± 7%
GI50 [6]: 1380 nM
GI50 [12, 17]: 2750 nM

Nc1ccc2[nH]c(-c3cccc(Cl)c3)cc(=O)c2c1 [compound 20, 3'-Chloro-6-amino-2-phenyl-4-quinolone]
activity in tubulin polymerization assay, in words [2]: moderately active
IC50 [2, 14]: 0.0061 ± 0.001 mM
GI50 [6]: 3160 nM
GI50 [10]: > 100000 nM
GI50 [12, 17]: 5500 nM

Nc1ccc2[nH]c(-c3cccc(C(F)(F)F)c3)cc(=O)c2c1 [compound 21, 3'-Trifluoromethyl-6-amino-2-phenyl-4-quinolone]
activity in tubulin polymerization assay, in words [2]: inactive
IC50 ([2]; values given in mM, read-out: IC50, inhibition of tubulin polymerization): > 0.04 mM
IC50 [2, 14]: > 0.04 mM
GI50 [6]: 34700 nM
GI50 [12, 17]: 39800 nM

COc1cccc(-c2cc(=O)c3cc(N)ccc3[nH]2)c1 [compound 22, 3'-Methoxy-6-amino-2-phenyl-4-quinolone]
activity in tubulin polymerization assay, in words [2]: moderately active
IC50 [2, 14]: 0.0087 ± 0.003 mM
GI50 [6]: 3470 nM
GI50 [12, 17]: 4570 nM

CC(=O)Nc1ccc2[nH]c(-c3cccc(F)c3)cc(=O)c2c1 [compound 25, 3'-Fluoro-6-acetamido-2-phenyl-4-quinolone]
GI50 ([7]; SF-268, read-out: logGI50 (converted)): 25700 nM
GI50 ([8]; Homo sapiens, SF-295, read-out: logGI50 (converted)): 38900 nM

O=c1cc(-c2cccc(OC(F)(F)F)c2)[nH]c2ccc(N3CCCC3)cc12 [compound 29, 3'-Trifluoromethoxy-6-pyrrolinyl-2-phenyl-4-quinolone]
IC50 [2, 14]: 0.00072 ± 0.0002 mM
ICB (% inhibition of colchicine binding) [1]: 58 ± 5%

COc1cccc(-c2cc(=O)c3cc(N4CCCCC4)ccc3[nH]2)c1 [compound 30, 3'-Methoxy-6-piperidinyl-2-phenyl-4-quinolone]
IC50 [2, 14]: 0.00078 ± 0.0002 mM
ICB (% inhibition of colchicine binding) [1]: 53 ± 6%

COc1cccc(-c2cc(=O)c3cc(NC(=O)c4ccccc4)ccc3[nH]2)c1 [compound 33, 3'-Methoxy-6'-benzamido-2-phenyl-4-quinolone]
IC50 [2, 14]: 0.0013 ± 7e-05 mM

O=c1cc(-c2ccccc2)[nH]c2cc3c(cc12)OCO3 [compound 34]
IC50 [2, 14]: 0.00063 ± 0.0002 mM
ICB (% inhibition of colchicine binding) [1]: 26 ± 10%

COc1cccc(-c2cc(=O)c3cc4c(cc3[nH]2)OCO4)c1 [compound 35]
IC50 [2, 14]: 0.00057 ± 0.0001 mM
ICB (% inhibition of colchicine binding) [1]: 39 ± 8%

CN(C)c1cccc(-c2cc(=O)c3cc4c(cc3[nH]2)OCO4)c1 [compound 36]
IC50 [2, 14]: 0.0007 ± 3e-05 mM
ICB (% inhibition of colchicine binding) [1]: 29 ± 7%

COc1ccc(CCc2cc(OC)c(OC)c(OC)c2)cc1O [dihydrocombretastatin A-4, reference compound]
IC50 [2, 14]: 0.00063 ± 3e-05 mM
ICB (% inhibition of colchicine binding) [1]: 65 ± 4%

COc1cc([C@@H]2c3cc4c(cc3[C@H](O)[C@H]3COC(=O)[C@H]23)OCO4)cc(OC)c1OC [podophyllotoxin, reference compound]
ICB (% inhibition of colchicine binding) [1]: 84 ± 2%
